Measurements: patent US8053577B2, “Derivatives of 5,9-methanocycloocta[b]pyridin-2-(1H)-one, their preparation and use as analgesics” (priority 2006, dated 2011)

What was measured:
[1] = Acute toxicity (LD50) in mice; settings: mouse, in vivo, oral administration
From the text: In view of the above-described problems, this invention relates to a series of analgesic 5,9-methanocycloocta[b]pyridin-2(H)-one derivatives.
The compounds of Formula I release huperzine A after p.o. administration. The amount of huperzine A released in artificial gastric fluid at various time intervals after administration of (5R,9R,11E)-5-(3-phenylprop-2-en-1-ylideneamino)-11-ethylidene-5,6,9,10-tetrahydro-7-methyl-5,9-methanocycloocta[b]pyridin-2(1H)-one is listed in Table 2. […] Accordingly, (5R,9R,11E)-5-(3-phenylprop-2-en-1-ylideneamino)-11-ethylidene-5,6,9,10-tetrahydro-7-methyl-5,9-methanocycloocta[b]pyridin-2(1H)-one is a pro-drug of huperzine A, and releases huperzine A in a sustained fashion. Sustained release of huperzine A can well explain lower toxicity of compounds of Formula I compared with Huperzine A (see Table 1).

mice = test: Analgesic effect of intragastric administration on mice measured with hot-plate test; format: in vivo, ICR mice; settings: x ± s, n = 10; for pain-threshold after administration / pain-threshold before administration: time course; for pain-threshold before administration / pain threshold before administration: baseline
Experimental: The analgesic effect with a single dose of the compounds represented by Formula I is preliminarily screened at single time point through hot-plate test, with fortanodyn and aspirin as positive controls. All of the compounds are administered intragastrically.
On the basis of preliminary screening results, several representative compounds were selected to test their analgesic duration, and a part of the results is listed in Table 4. The results illustrate that the analgesic duration of most compounds is longer than 2 hours after a single oral administration, and that some of the compounds have analgesic duration lasting longer than 4 hours.
Furthermore, the dose-effect relationship on an analgesic model of two compounds was tested and the results are shown in Table 5.
Analgesic effect of intragastric administration on mice measured with hot-plate test
Female ICR mice, weight 20+2 g, were purchased from Department of Laboratory Animal Science, Beijing University, animal license number: SCXK 2002-0001.
A) Samples: samples were prepared as mixtures with 0.9% NaCl solution for intragastric administration to mice.
B) Fortanodyn: 30 mg/pill (TianJin LiSheng Pharmaceutical Co. Ltd, lot number: 0201001), 1.5 mg/mL solution was prepared with 0.9% NaCl solution for intragastric administration to mice.
1) Hot-plate test on mice was employed. A thermostatic water bath was adjusted at 55±0.5° C., the bottom of metal plates contacted water surface and used as stimuli after heating. The time span(s) from the point when the mouse was placed onto the hot-plate to the time when the mouse started to lick its metapedes was determined as its pain threshold, which was recorded by stopwatch. Female mice with a weight of 20±2 g were used. The pain threshold of every mouse was measured twice before administration, and the qualified mice are the ones whose average pain threshold was less than 30 seconds.
The qualified mice were randomly grouped with 10 mice in each group. The pain threshold before administration was determined as the basic pain threshold. To the medication administration team, drugs of different dose were given through intragastric administration, whereas to the control group, 0.9% NaCl solution was given. The administration volume was 0.2 mL for every 10 g body weight. The pain threshold of each group was measured at 1 hour after administration.
After administration the pain threshold of each group at different time was measured. The experimental data was statistically treated with t-test using SPSS10 statistics software.

[2] = 0.84 mg/kg intragastric, 30 min
[3] = 0.84 mg/kg intragastric, 60 min
[4] = 0.84 mg/kg intragastric, 120 min
[5] = 0.84 mg/kg intragastric, 180 min
[6] = group dosed 0.84 mg/kg intragastric
[7] = Table 3 screening, 0.6 mg/kg intragastric, 1 hour
[8] = Table 3 screening, group dosed 0.6 mg/kg intragastric

C/C=C1\[C@H]2C=C(C)C[C@]1(N)c1ccc(=O)[nH]c1C2 [Example 1, (5R,9R,11E)-5-amino-11-ethylidene-5,6,9,10-tetrahydro-7-methyl-5,9-methanocycloocta[b]pyridin-2(1H)-one, reference compound]
LD50 [1]: 3.8 mg/kg

C/C=C1\[C@H]2C=C(C)C[C@]1(/N=C/C=C/c1ccccc1)c1ccc(=O)[nH]c1C2 [Example 2, (5R,9R,11E)-5-(3-phenylprop-2-en-1-ylideneamino)-11-ethylidene-5,6,9,10-tetrahydro-7-methyl-5,9-methanocycloocta[b]pyridin-2(1H)-one]
pain-threshold after administration (mice; 0.73 mg/kg intragastric, 30 min): 34.0 ± 11.42 s | pain-threshold after administration (mice; 0.73 mg/kg intragastric, 60 min): 36.5 ± 10.91 s | pain-threshold after administration (mice; 0.73 mg/kg intragastric, 120 min): 29.0 ± 7.83 s | pain-threshold after administration (mice; 0.73 mg/kg intragastric, 180 min): 24.0 ± 5.44 s | pain-threshold after administration (mice; 0.73 mg/kg intragastric, 240 min): 18.3 ± 5.31 s | LD50 [1]: 26.5 mg/kg

C/C=C1\[C@H]2C=C(C)C[C@]1(/N=C/C=C/c1ccc(Cl)cc1)c1ccc(=O)[nH]c1C2 [Example 14, (5R,9R,11E)-5-(3-(4-chlorophenyl)prop-2-en-1-ylideneamino)-11-ethylidene-5,6,9,10-tetrahydro-7-methyl-5,9-methanocycloocta[b]pyridin-2(1H)-one]
pain-threshold after administration (mice; 0.81 mg/kg intragastric, 30 min): 47.9 ± 12.95 s | pain-threshold after administration (mice; 0.81 mg/kg intragastric, 60 min): 45.9 ± 15.42 s | pain-threshold after administration (mice; 0.81 mg/kg intragastric, 120 min): 31.0 ± 12.04 s | pain-threshold after administration (mice; 0.81 mg/kg intragastric, 180 min): 25.1 ± 8.10 s | pain-threshold after administration (mice; 0.81 mg/kg intragastric, 240 min): 26.2 ± 9.69 s | pain-threshold before administration (mice; group dosed 0.81 mg/kg intragastric): 12.6 ± 4.25 s | LD50 [1]: 35.6 mg/kg

C/C=C1\[C@H]2C=C(C)C[C@]1(/N=C/C=C/c1ccco1)c1ccc(=O)[nH]c1C2 [Example 21, (5R,9R,11E)-5-(3-(furan-2-yl)prop-2-en-1-ylideneamino)-11-ethylidene-5,6,9,10-tetrahydro-7-methyl-5,9-methanocycloocta[b]pyridin-2(1H)-one]
pain threshold after administration (mice; dose-effect, 0.42 mg/kg intragastric, 30 min): 16.3 ± 4.47 s | pain threshold after administration (mice; dose-effect, 0.42 mg/kg intragastric, 60 min): 16.4 ± 4.03 s | pain threshold after administration (mice; dose-effect, 0.42 mg/kg intragastric, 120 min): 13.2 ± 2.86 s | pain threshold after administration (mice; dose-effect, 0.42 mg/kg intragastric, 180 min): 14.1 ± 1.66 s | pain threshold before administration (mice; dose-effect, group dosed 0.42 mg/kg intragastric): 12.5 ± 2.79 s | pain-threshold after administration (mice; 0.71 mg/kg intragastric, 30 min): 17.2 ± 6.37 s | pain-threshold after administration (mice; 0.71 mg/kg intragastric, 60 min): 21.0 ± 8.77 s | pain-threshold after administration (mice; 0.71 mg/kg intragastric, 120 min): 16.9 ± 8.32 s | pain-threshold after administration (mice; 0.71 mg/kg intragastric, 180 min): 12.9 ± 3.87 s | pain-threshold after administration (mice; [2]): 23.3 ± 7.45 s | pain-threshold after administration (mice; [3]): 28.1 ± 10.15 s | pain-threshold after administration (mice; [4]): 14.9 ± 5.02 s | pain-threshold after administration (mice; [5]): 13.7 ± 2.98 s | pain-threshold before administration (mice; group dosed 0.71 mg/kg intragastric): 11.9 ± 3.90 s | pain-threshold before administration (mice; [6]): 12.3 ± 3.86 s

C/C=C1\C2C=C(C)CC1(/N=C/C=C/c1ccc3ccccc3c1)c1ccc(=O)[nH]c1C2 [Example 22, (5R,9R,11E)-5-(3-(naphthalen-2-yl)prop-2-en-1-ylideneamino)-11-ethylidene-5,6,9,10-1,7-dimethyl-5,9-methanocycloocta[b]pyridin-2(1H)-one]
pain threshold after administration (mice; [7]): 23.6 ± 4.27 s | pain threshold before administration (mice; [8]): 12.4 ± 4.13 s

C/C=C1\C2C=C(C)CC1(/N=C/C=C/c1cccc3ccccc13)c1ccc(=O)[nH]c1C2 [Example 23, (5R,9R,11E)-5-(3-(naphthalen-1-yl)prop-2-en-1-ylideneamino)-11-ethylidene-5,6,9,10-1,7-dimethyl-5,9-methanocycloocta[b]pyridin-2(1H)-one]
pain-threshold after administration (mice; [2]): 23.3 ± 7.45 s | pain-threshold after administration (mice; [3]): 28.1 ± 10.15 s | pain-threshold after administration (mice; [4]): 14.9 ± 5.02 s | pain-threshold after administration (mice; [5]): 13.7 ± 2.98 s | pain-threshold before administration (mice; [6]): 12.3 ± 3.86 s | LD50 [1]: 43.2 mg/kg

C/C=C1\C2C=C(C)CC1(/N=C/C=C/c1c3ccccc3cc3ccccc13)c1ccc(=O)[nH]c1C2 [Example 26, (5R,9R,11E)-5-(3-(anthracen-9-yl)prop-2-en-1-ylideneamino)-11-ethylidene-5,6,9,10-1,7-dimethyl-5,9-methanocycloocta[b]pyridin-2(1H)-one]
pain threshold after administration (mice; [7]): 20.8 ± 3.60 s

C/C=C1\C2C=C(C)CC1(/N=C\c1ccc(/C=C/C=N/C34CC(C)=CC(Cc5[nH]c(=O)ccc53)/C4=C\C)cc1)c1ccc(=O)[nH]c1C2 (stereo not drawn) [Example 27]
pain threshold after administration (mice; [7]): 21.2 ± 5.53 s | pain threshold before administration (mice; [8]): 12.4 ± 3.14 s

C/C=C1\C2C=C(C)CC1(/N=C\C=C\c1ccc(/C=C/C=N/C34CC(C)=CC(Cc5[nH]c(=O)ccc53)/C4=C\C)cc1)c1ccc(=O)[nH]c1C2 [Example 28]
pain threshold after administration (mice; [7]): 23.4 ± 3.88 s | pain threshold before administration (mice; [8]): 12.6 ± 2.73 s
